Reference: US10766928B2, “Targeted conformationally-constrained kinked endosomal disrupting peptides” (priority 2012, dated 2020)
Values after ≈ are worked out from the molar mass of the structure shown. Non-standard residues stand in square brackets, D forms with d. Residues, ends and D or L forms follow the SMILES beside them. Aib = CC(C)(N)C(=O)O

Assays:
[1] = tested on: endosomes of Jurkat lymphocytes; test: Endosome disruption in Jurkat lymphocytes: release of carboxyfluorescein from disulfide probe Compound 2, flow cytometry; details: Table 2, 14 h; for Efficacy (% of 1): % of the effect of compound 1, calculated span of dose-response curve, ± standard deviation, Jurkat; for EC50: read-out: Potency, EC50 ± standard deviation, Jurkat lymphocytes, disulfide-linked fluorescent probe (2.5 μM)
In short: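 Human Jurkat cells treated with compounds plus disulfide probe Compound 2 (2.5 μM) for 14 h at 37 °C. Cytoplasmic release of pH-sensitive fluorophore Compound 3 quantified by flow cytometry. IC50 by non-linear regression; efficacy as % fluorescence change relative to Compound 1 maximum (100%).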

Jurkat lymphocytes = details: read-out: Toxicity; Table 3; IC50, Jurkat, 48 h at 37° C.; footnote a: non-toxic and soluble in cell culture medium at this concentration
[2] = Thermodynamic solubility in PBS (pH 7.4); format: physicochemical; details: phosphate buffered saline, pH 7.4, Table 3; PBS pH 7.4, 24 h at 22° C.; read-out: Solubility
Description: Values in parentheses represent 95% confidence intervals. N.D., not determined.
Measurements represent duplicate or more replicates, with active peptides subjected to multiple replicates. ND: not determined. The peptide was non-toxic and soluble in cell culture medium at this concentration.

EC50 [1] [nM] | solubility thermodynamic at 24 h [2] [µM] | SMILES | Efficacy (% of 1) [1] [%] | IC50 (Jurkat lymphocytes) [nM]
2300 ± 300 | 5 ± 1 (≈ 7.92 µg/mL) | CC(=O)NC(C)(C)C(=O)NC(C)(C)C(=O)NC(C)(C)C(=O)NC(C)(C)C(=O)N[C@@H](Cc1c[nH]c2ccccc12)C(=O)N[C@@H](Cc1c[nH]c2ccccc12)C(=O)N[C@@H](C)C(=O)N[C@@H](Cc1c[nH]c2ccccc12)C(=O)N[C@@H](Cc1ccc(O)cc1)C(=O)N1CCC[C@H]1C(=O)N1CCC[C@H]1C(=O)N[C@H](C(=O)N[C@H](C(N)=O)C(C)C)C(C)C [Compound 78] (Ac-[Aib][Aib][Aib][Aib]WWAWYPPVV-NH2) | 70 ± 2 | > 16000
220 ± 60 | 2 ± 1 (≈ 3.97 µg/mL) | CC(C)[C@H](NC(=O)[C@@H](NC(=O)[C@@H]1CCCN1C(=O)[C@@H]1CCCN1C(=O)[C@H](Cc1ccc(O)cc1)NC(=O)[C@H](Cc1c[nH]c2ccccc12)NC(=O)[C@H](C)NC(=O)[C@H](Cc1c[nH]c2ccccc12)NC(=O)[C@H](Cc1c[nH]c2ccccc12)NC(=O)[C@H](C)NC(=O)[C@H](Cc1c[nH]c2ccccc12)NC(=O)[C@H](Cc1c[nH]c2ccccc12)NC(=O)C(C)(C)NC(=O)C(C)(C)NC(=O)C(C)(C)NC(=O)C(C)(C)N)C(C)C)C(N)=O [Compound 79] (H-[Aib][Aib][Aib][Aib]WWAWWAWYPPVV-NH2) | 86 ± 5 | > 16000
280 ± 100 | 5 ± 2 (≈ 9.7 µg/mL) | CC(C)[C@H](NC(=O)[C@@H](NC(=O)[C@@H]1CCCN1C(=O)[C@@H]1CCCN1C(=O)[C@H](Cc1ccc(O)cc1)NC(=O)[C@H](Cc1c[nH]c2ccccc12)NC(=O)[C@H](C)NC(=O)[C@H](Cc1ccc(O)cc1)NC(=O)[C@H](Cc1c[nH]c2ccccc12)NC(=O)[C@H](C)NC(=O)[C@H](Cc1ccc(O)cc1)NC(=O)[C@H](Cc1c[nH]c2ccccc12)NC(=O)C(C)(C)NC(=O)C(C)(C)NC(=O)C(C)(C)NC(=O)C(C)(C)N)C(C)C)C(N)=O [Compound 80] (H-[Aib][Aib][Aib][Aib]WYAWYAWYPPVV-NH2) | 113 ± 4 | > 16000
9000 ± 6000 | 3 ± 1 (≈ 5.82 µg/mL) | CC(C)[C@H](NC(=O)[C@@H](NC(=O)[C@@H]1CCCN1C(=O)[C@@H]1CCCN1C(=O)[C@H](Cc1ccc(O)cc1)NC(=O)[C@H](Cc1c[nH]c2ccccc12)NC(=O)[C@H](Cc1ccc(O)cc1)NC(=O)[C@H](Cc1c[nH]c2ccccc12)NC(=O)[C@H](C)NC(=O)[C@H](Cc1ccc(O)cc1)NC(=O)[C@H](Cc1c[nH]c2ccccc12)NC(=O)[C@H](C)NC(=O)C(C)(C)NC(=O)C(C)(C)NC(=O)C(C)(C)NC(=O)C(C)(C)N)C(C)C)C(N)=O [Compound 81] (H-[Aib][Aib][Aib][Aib]AWYAWYWYPPVV-NH2) | 83 ± 13 | > 8000
800 ± 200 | 2 ± 1 (≈ 3.96 µg/mL) | CC(=O)NC(C)(C)C(=O)NC(C)(C)C(=O)NC(C)(C)C(=O)NC(C)(C)C(=O)N[C@@H](Cc1c[nH]c2ccccc12)C(=O)N[C@@H](Cc1ccc(O)cc1)C(=O)N[C@@H](C)C(=O)N[C@@H](Cc1c[nH]c2ccccc12)C(=O)N[C@@H](Cc1ccc(O)cc1)C(=O)N[C@@H](C)C(=O)N[C@@H](Cc1c[nH]c2ccccc12)C(=O)N[C@@H](Cc1ccc(O)cc1)C(=O)N1CCC[C@H]1C(=O)N1CCC[C@H]1C(=O)N[C@H](C(=O)N[C@H](C(N)=O)C(C)C)C(C)C [Compound 82] (Ac-[Aib][Aib][Aib][Aib]WYAWYAWYPPVV-NH2) | 85 ± 7 | > 16000
